From US20030138816A1, “Methods and kits for diagnosing the occurrence or the phase of minimal change nephrotic syndrome (MCNS) in a human” (INSTITUT NATIONAL DE LA SANTE ET DE LA RECHERCHE MEDICALE, priority 2001, published 2003)
Residues, ends and D or L forms follow the SMILES beside them. *: point of attachment. Cbz = O=C(OCc1ccccc1)*

What was measured:
PBMC from relapse = assay: Incubation of PBMCs with the proteasome inhibitor MG132, c-maf protein in protein extracts; type: cell-based, human; conditions: co culture of PBMC from MCNS relapse with MG132, 10 μM, overnight
Protocol: 5) Quantification of IL4 mRNA by quantitative RT-PCR. Quantitative PCR was performed using the Light Cycler (Roche Molecular Biochemical). The samples (2 μl of the RT reaction, corresponding to 20 ng of total RNA) were amplified in a 20 μl reaction mixture containing […] each primer, and 1×mix LightCycler-DNA master SYBR Green buffer (Roche Molecular Biochemical). Carry-over was prevented by using dUTP instead of dTTP, and heat-labile Uracil DNA glyco-sylase (UDG). A standard curve was made using dilution of the RNA prepared from pUc9-IL4 plasmid. The PCR reaction was started by a denaturation at 95° C. for 2 min followed by 40 three step cycles (95° C.: 1 sec, 60° C.: 10 sec, and 72° C.: 24 sec). The relative value for each sample was calculated using the LightCycler analysis software. 6) Electromobility shift assays (EMSA), immunoprecipitations and Western blottings: Cytosolic and nuclear protein preparations as well as EMSA were performed as previously described (34). […] The subunit composition of DNA-protein complexes containing c-Maf was determined by preincubation of nuclear extracts with 1 μg of polyclonal antibodies raised against c-Maf (sc-7866), c-Fos (sc-7202), and c-Jun (sc-1694), (Santa Cruz, Biotechnology), before the addition of the probe. […] Band shifts were quantified using the ImageQuant V1.11 analysis software. […]

[1] = system: patient with Minimal Change Nephrotic Syndrome; assay: Prednisone treatment of the patient selected for the subtractive library (onset of nephrotic syndrome, MCNS); type: in vivo, human; conditions: one patient, prednisone 1 mg/kg/day for four weeks, then tapered

For `CC(C)C[C@@H](C=O)NC(=O)[C@H](CC(C)C)NC(=O)[C@H](CC(C)C)NC(=O)OCc1ccccc1` [MG132, carbobenzoxyl-leucinyl-leucinyl-leucinal-H] (Cbz-Leu-Leu-Leu-aldehyde), the “effect on L/c-maf protein (long form)” value (PBMC from relapse) was “no evident change” and the “effect on S/c-maf protein (short form)” value (PBMC from relapse) was “induces a sequestration of S/c-maf protein”.

`C[C@]12C=CC(=O)C=C1CC[C@@H]1[C@@H]2C(=O)C[C@@]2(C)[C@H]1CC[C@]2(O)C(=O)CO` [prednisone] was tested, and the “remission of nephrotic syndrome” value [1] was “Complete remission was obtained within ten days”.
